PubChem BioAssay (NCI)
Where “and” joins values, the source holds several entries; their conditions need not be identical. Equal values may be shown once.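 Tested at 5 concentrations; 48 h exposure; 96-well plates; endpoints linearly interpolated, else capped at highest concentration. GI50 marks 50% less growth. TGI: concentration producing complete growth inhibition.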

Columns and labels:
Assay in all cases: NCI anticancer screen, dose series, 48 h
ACHN renal = tested on: ACHN renal
OVCAR-4 ovarian = tested on: OVCAR-4 ovarian
IGROV1 ovarian = tested on: IGROV1 ovarian
HOP-92 NSCLC = tested on: HOP-92 NSCLC
HOP-18 NSCLC = tested on: HOP-18 NSCLC
HCT-116 colon = tested on: HCT-116 colon
U251 CNS = tested on: U251 CNS
UACC-62 melanoma = tested on: UACC-62 melanoma
MOLT-4 leukemia = tested on: MOLT-4 leukemia
A498 renal = tested on: A498 renal
SW-620 colon = tested on: SW-620 colon
KM20L2 colon = tested on: KM20L2 colon
M14 melanoma = tested on: M14 melanoma
RPMI-8226 leukemia = tested on: RPMI-8226 leukemia
OVCAR-8 ovarian = tested on: OVCAR-8 ovarian
NCI-H460 lung = tested on: NCI-H460 lung
TK-10 renal = tested on: TK-10 renal
CAKI-1 renal = tested on: CAKI-1 renal
HT29 colon = tested on: HT29 colon
NCI-H23 lung = tested on: NCI-H23 lung
OVCAR-3 ovarian = tested on: OVCAR-3 ovarian
SN12C renal = tested on: SN12C renal
SK-MEL-28 melanoma = tested on: SK-MEL-28 melanoma
UACC-257 melanoma = tested on: UACC-257 melanoma
A549 NSCLC = tested on: A549 NSCLC
EKVX NSCLC = tested on: EKVX NSCLC
COLO 205 colon = tested on: COLO 205 colon
LOX IMVI melanoma = tested on: LOX IMVI melanoma
SF-539 CNS = tested on: SF-539 CNS
SK-OV-3 ovarian = tested on: SK-OV-3 ovarian
SF-295 CNS = tested on: SF-295 CNS
HCT-15 colon = tested on: HCT-15 colon
SNB-19 CNS = tested on: SNB-19 CNS
SK-MEL-5 melanoma = tested on: SK-MEL-5 melanoma
RXF 393 renal = tested on: RXF 393 renal
BT-549 breast = tested on: BT-549 breast
T-47D breast = tested on: T-47D breast
786-0 renal = tested on: 786-0 renal
UO-31 renal = tested on: UO-31 renal
CCRF-CEM leukemia = tested on: CCRF-CEM leukemia
HS 578T breast = tested on: HS 578T breast
NCI-H522 lung = tested on: NCI-H522 lung
KM12 colon = tested on: KM12 colon
SNB-75 CNS = tested on: SNB-75 CNS
MALME-3M melanoma = tested on: MALME-3M melanoma
MDA-MB-435 = tested on: MDA-MB-435
MDA-MB-231 breast = tested on: MDA-MB-231 breast
SR leukemia = tested on: SR leukemia
OVCAR-5 ovarian = tested on: OVCAR-5 ovarian
HCC-2998 colon = tested on: HCC-2998 colon
HOP-62 NSCLC = tested on: HOP-62 NSCLC
MDA-N = tested on: MDA-N
HL-60(TB) leukemia = tested on: HL-60(TB) leukemia
PC-3 prostate = tested on: PC-3 prostate
DU-145 prostate = tested on: DU-145 prostate
DMS 114 small cell lung = tested on: DMS 114 small cell lung
NCI/ADR-RES ovarian = tested on: NCI/ADR-RES ovarian
SK-MEL-2 melanoma = tested on: SK-MEL-2 melanoma
NCI-H226 lung = tested on: NCI-H226 lung
K-562 leukemia = tested on: K-562 leukemia
SF-268 CNS = tested on: SF-268 CNS
MCF7 breast = tested on: MCF7 breast

O=C([CH-]C(=O)c1ccccc1)c1ccccc1.O=C([CH-]C(=O)c1ccccc1)c1ccccc1.[O]=[U+2]=[O]
GI50 (ACHN renal): 3.39 µM | TGI (ACHN renal): 11.9 µM | GI50 (OVCAR-4 ovarian): 2.42 µM | TGI (OVCAR-4 ovarian): 14 µM | GI50 (IGROV1 ovarian): 3.33 µM | TGI (IGROV1 ovarian): 12.6 µM | GI50 (HOP-92 NSCLC): 2.9 µM | TGI (HOP-92 NSCLC): 6.18 µM | GI50 (HOP-18 NSCLC): 5.3 µM | TGI (HOP-18 NSCLC): 24.9 µM | GI50 (HCT-116 colon): 2.99 µM | TGI (HCT-116 colon): 15.9 µM | GI50 (U251 CNS): 3.06 µM | TGI (U251 CNS): > 100 µM | GI50 (UACC-62 melanoma): 2.43 µM | TGI (UACC-62 melanoma): 6.91 µM | GI50 (MOLT-4 leukemia): 2.57 µM | TGI (MOLT-4 leukemia): 27.3 µM | GI50 (A498 renal): 2.59 µM | TGI (A498 renal): 7.89 µM | GI50 (SW-620 colon): 3.15 µM | TGI (SW-620 colon): > 100 µM | GI50 (KM20L2 colon): 2.65 µM | TGI (KM20L2 colon): 12.4 µM | GI50 (M14 melanoma): 2.35 µM | TGI (M14 melanoma): 6.42 µM | GI50 (RPMI-8226 leukemia): 1.99 µM | TGI (RPMI-8226 leukemia): 6.4 µM | GI50 (OVCAR-8 ovarian): 3.02 µM | TGI (OVCAR-8 ovarian): > 100 µM | GI50 (NCI-H460 lung): 1.99 µM | TGI (NCI-H460 lung): 13.1 µM | GI50 (TK-10 renal): 4.8 µM | TGI (TK-10 renal): 26.6 µM | GI50 (CAKI-1 renal): 3.79 µM | TGI (CAKI-1 renal): 15.6 µM | GI50 (HT29 colon): 2.39 µM | TGI (HT29 colon): 7.71 µM | GI50 (NCI-H23 lung): 4.01 µM | TGI (NCI-H23 lung): > 100 µM | GI50 (OVCAR-3 ovarian): 1.81 µM | TGI (OVCAR-3 ovarian): 4.79 µM | GI50 (SN12C renal): 3.33 µM | TGI (SN12C renal): 18.7 µM | GI50 (SK-MEL-28 melanoma): 3.49 µM | TGI (SK-MEL-28 melanoma): 19.9 µM | GI50 (UACC-257 melanoma): 7.84 µM | TGI (UACC-257 melanoma): 35.5 µM | GI50 (A549 NSCLC): 3.17 µM | TGI (A549 NSCLC): 18.7 µM | GI50 (EKVX NSCLC): 4.78 µM | TGI (EKVX NSCLC): > 100 µM | GI50 (COLO 205 colon): 2.11 µM | TGI (COLO 205 colon): 4.71 µM | GI50 (LOX IMVI melanoma): 2.7 µM | TGI (LOX IMVI melanoma): > 100 µM | GI50 (SF-539 CNS): 2.45 µM | TGI (SF-539 CNS): 6.44 µM | GI50 (SK-OV-3 ovarian): 4.01 µM | TGI (SK-OV-3 ovarian): 12.3 µM | GI50 (SF-295 CNS): 1.81 µM | TGI (SF-295 CNS): 4.29 µM | GI50 (HCT-15 colon): 2.78 µM | TGI (HCT-15 colon): 11.1 µM | GI50 (SNB-19 CNS): 3.36 µM | TGI (SNB-19 CNS): 18.9 µM | GI50 (SK-MEL-5 melanoma): 2.77 µM | TGI (SK-MEL-5 melanoma): 9.12 µM | GI50 (RXF 393 renal): 2.35 µM | TGI (RXF 393 renal): 6.22 µM

Nc1nc(N)c2cc(CNc3ccc(C(=O)NC(CC(=O)O)C(=O)O)c(Cl)c3)ccc2n1 (stereo unspecified)
GI50 (ACHN renal): 0.05 µM | TGI (ACHN renal): > 500 µM | TGI (OVCAR-4 ovarian): > 500 µM | GI50 (BT-549 breast): > 500 µM | TGI (BT-549 breast): > 500 µM | GI50 (IGROV1 ovarian): 223 µM | TGI (IGROV1 ovarian): > 500 µM | GI50 (HCT-116 colon): 0.05 µM | TGI (HCT-116 colon): > 500 µM | TGI (T-47D breast): > 500 µM | GI50 (786-0 renal): < 0.01 µM | TGI (786-0 renal): > 500 µM | GI50 (UACC-62 melanoma): 0.05 µM | TGI (UACC-62 melanoma): > 500 µM | GI50 (MOLT-4 leukemia): 0.05 µM | TGI (MOLT-4 leukemia): > 31.6 µM and 316 µM | GI50 (A498 renal): 0.05 µM | TGI (A498 renal): > 500 µM | GI50 (UO-31 renal): 0.244 µM | TGI (UO-31 renal): > 500 µM | GI50 (CCRF-CEM leukemia): 0.05 µM | TGI (CCRF-CEM leukemia): > 500 µM | GI50 (SW-620 colon): 0.05 µM | TGI (SW-620 colon): > 500 µM | TGI (HS 578T breast): > 500 µM | GI50 (NCI-H522 lung): 342 µM | TGI (NCI-H522 lung): > 500 µM | GI50 (M14 melanoma): 0.05 µM | TGI (M14 melanoma): > 500 µM | TGI (KM12 colon): > 500 µM | GI50 (SNB-75 CNS): 71.7 µM | TGI (SNB-75 CNS): > 500 µM | GI50 (MALME-3M melanoma): > 500 µM | TGI (MALME-3M melanoma): > 500 µM | GI50 (MDA-MB-435): 0.05 µM | TGI (MDA-MB-435): > 500 µM | GI50 (RPMI-8226 leukemia): 2.77 µM | TGI (RPMI-8226 leukemia): > 500 µM | TGI (MDA-MB-231 breast): > 500 µM | GI50 (OVCAR-8 ovarian): 0.05 µM | TGI (OVCAR-8 ovarian): > 500 µM | TGI (SR leukemia): > 500 µM | GI50 (NCI-H460 lung): 0.05 µM | TGI (NCI-H460 lung): 72.6 µM | GI50 (OVCAR-5 ovarian): 0.05 µM | TGI (OVCAR-5 ovarian): > 500 µM | TGI (HCC-2998 colon): > 77.5 µM | GI50 (TK-10 renal): > 500 µM | TGI (TK-10 renal): > 500 µM | GI50 (HOP-62 NSCLC): 0.308 µM and 0.05 µM | TGI (HOP-62 NSCLC): > 500 µM | GI50 (CAKI-1 renal): 0.05 µM | TGI (CAKI-1 renal): > 500 µM | GI50 (HT29 colon): 0.05 µM | TGI (HT29 colon): > 500 µM | GI50 (NCI-H23 lung): 0.05 µM | TGI (NCI-H23 lung): 64 µM and 491 µM | GI50 (OVCAR-3 ovarian): 177 µM | TGI (OVCAR-3 ovarian): > 500 µM | GI50 (MDA-N): 0.05 µM | TGI (MDA-N): > 500 µM | GI50 (SN12C renal): 0.05 µM | TGI (SN12C renal): > 500 µM | TGI (HL-60(TB) leukemia): > 500 µM | TGI (SK-MEL-28 melanoma): > 4.64 µM | GI50 (PC-3 prostate): < 0.01 µM | TGI (PC-3 prostate): > 500 µM | GI50 (A549 NSCLC): 0.05 µM | TGI (A549 NSCLC): > 500 µM | GI50 (EKVX NSCLC): > 500 µM | TGI (EKVX NSCLC): > 500 µM | TGI (DU-145 prostate): > 500 µM | TGI (DMS 114 small cell lung): 0.0214 µM | GI50 (COLO 205 colon): 0.462 µM | TGI (COLO 205 colon): > 500 µM | GI50 (NCI/ADR-RES ovarian): 0.05 µM | TGI (NCI/ADR-RES ovarian): > 500 µM | GI50 (LOX IMVI melanoma): 0.05 µM | TGI (LOX IMVI melanoma): > 500 µM | GI50 (SF-539 CNS): 0.05 µM | TGI (SF-539 CNS): > 500 µM | GI50 (SK-OV-3 ovarian): 74.7 µM | TGI (SK-OV-3 ovarian): > 500 µM | GI50 (SF-295 CNS): 0.05 µM | TGI (SF-295 CNS): > 500 µM | GI50 (SK-MEL-2 melanoma): > 500 µM | TGI (SK-MEL-2 melanoma): > 500 µM | GI50 (HCT-15 colon): 0.05 µM | TGI (HCT-15 colon): > 500 µM | GI50 (SNB-19 CNS): 0.05 µM | TGI (SNB-19 CNS): > 500 µM | GI50 (NCI-H226 lung): > 500 µM | TGI (NCI-H226 lung): > 500 µM | GI50 (K-562 leukemia): 0.05 µM | TGI (K-562 leukemia): > 500 µM | GI50 (SF-268 CNS): 0.189 µM | GI50 (SK-MEL-5 melanoma): 0.05 µM | TGI (SK-MEL-5 melanoma): > 500 µM | TGI (MCF7 breast): > 500 µM | GI50 (RXF 393 renal): > 500 µM | TGI (RXF 393 renal): > 500 µM
